# Key:
# [1] = system: Salmonella enteritidis; assay: Antibacterial activity against Salmonella enteritidis; assay type: functional, Salmonella enterica subsp. enterica serovar Enteritidis; settings: Salmonella enterica
# [2] = system: Escherichia coli; assay: Antibacterial activity against Escherichia coli; assay type: functional
# [3] = system: Pseudomonas aeruginosa; assay: Antibacterial activity against Pseudomonas aeruginosa; assay type: functional
# [4] = system: Bacillus subtilis; assay: Antibacterial activity against Bacillus subtilis; assay type: functional
# [5] = system: Staphylococcus aureus; assay: Antibacterial activity against Staphylococcus aureus; assay type: functional
# [6] = system: Staphylococcus epidermidis; assay: Antibacterial activity against Staphylococcus epidermidis; assay type: functional
# [7] = system: Yersinia pseudotuberculosis; assay: Antibacterial activity against Yersinia pseudotuberculosis; assay type: functional
# [8] = system: Bacillus cereus; assay: Antibacterial activity against Bacillus cereus; assay type: functional
# [9] = system: Enterococcus faecalis; assay: Antibacterial activity against Enterococcus faecalis; assay type: functional
# [10] = Antibacterial activity against Salmonella typhi; assay type: functional, Salmonella enterica subsp. enterica serovar Typhimurium; settings: Salmonella enterica
# [11] = system: Clostridioides difficile; assay: Antibacterial activity against Clostridioides difficile; assay type: functional
# [12] = system: Citrobacter freundii; assay: Antibacterial activity against Citrobacter freundii; assay type: functional
# [13] = system: Vibrio cholerae; assay: Antibacterial activity against Vibrio cholerae; assay type: functional
# [14] = system: Shigella flexneri; assay: Antibacterial activity against Shigella flexneri; assay type: functional
# [15] = system: Klebsiella pneumoniae; assay: Antibacterial activity against Klebsiella pneumoniae; assay type: functional
# [16] = system: Staphylococcus aureus; assay: Antibacterial activity against methicillin resistant Staphylococcus aureus reference strain; assay type: functional
# [17] = system: Staphylococcus aureus; assay: Antibacterial activity against methicillin resistant Staphylococcus aureus clinical strain; assay type: functional
# [18] = system: Staphylococcus aureus; assay: Antibacterial activity against methicillin resistant Staphylococcus aureus; assay type: functional
# [19] = system: Listeria monocytogenes; assay: Antibacterial activity against Listeria monocytogenes; assay type: functional
# [20] = system: Lactobacillus acidophilus; assay: Antibacterial activity against Lactobacillus acidophilus; assay type: functional
# [21] = system: Staphylococcus aureus; assay: Antibacterial activity against methicillin resistant Staphylococcus aureus 3; assay type: functional
# [22] = system: Staphylococcus aureus; assay: Antibacterial activity against methicillin resistant Staphylococcus aureus 1; assay type: functional
# [23] = system: Staphylococcus aureus; assay: Antibacterial activity against methicillin resistant Staphylococcus aureus 2; assay type: functional
structure (smiles),measurement,setting,value
CCn1cc(C(=O)O)c(=O)c2cc(F)c(N3CCN(C(=O)CN4C(=O)S/C(=C\c5ccccc5)C4=O)CC3)cc21,MIC,[1],0.5 µg/mL
same,MIC,[2],0.5 µg/mL
same,MIC,[3],0.5 µg/mL
CC(=O)C(C(C)=O)C(=O)c1cn(C2CC2)c2cc(N3CCN(/N=N/c4nc(C)cc(C)n4)CC3)c(F)cc2c1=O,MIC,[4],0.015 µg/mL
same,MIC,[5],0.015 µg/mL
same,MIC,[6],0.015 µg/mL
O=C(O)c1cn(C2CC2)c2cc(N3CCN(Cn4nc(-c5cccnc5)oc4=S)CC3)c(F)cc2c1=O,MIC,[4],0.031 µg/mL
same,MIC,[5],0.031 µg/mL
same,MIC,[2],0.031 µg/mL
same,MIC,[3],0.031 µg/mL
CCn1cc(C(=O)O)c(=O)c2cc(F)c(N3CCNCC3)cc21 [NORFLOXACIN],MIC,[7],< 0.24 µg/mL
same,MIC,[8],< 0.24 µg/mL
same,MIC,[9],< 0.24 µg/mL
same,MIC,[5],< 0.24 µg/mL
same,MIC,[1],0.0625 µg/mL
same,MIC,[10],2.4 µg/mL
same,MIC,[2],< 0.24 µg/mL
same,MIC,[3],< 0.24 µg/mL
CN[C@H](CC(C)C)C(=O)N[C@H]1C(=O)N[C@@H](CC(N)=O)C(=O)N[C@H]2C(=O)N[C@H]3C(=O)N[C@H](C(=O)N[C@H](C(=O)O)c4cc(O)cc(O)c4-c4cc3ccc4O)[C@H](O)c3ccc(c(Cl)c3)Oc3cc2cc(c3O[C@@H]2O[C@H](CO)[C@@H](O)[C@H](O)[C@H]2O[C@H]2C[C@](C)(N)[C@H](O)[C@H](C)O2)Oc2ccc(cc2Cl)[C@H]1O [VANCOMYCIN],MIC50,[11],2 µg/mL
same,MIC90,[11],4 µg/mL
Cc1c(-c2cnc(N)c(C#N)c2)c(F)cc2c(=O)c(C(=O)O)cn(C3CC3)c12,MIC50,[11],0.125 µg/mL
same,MIC90,[11],0.5 µg/mL
Cc1ncc([N+](=O)[O-])n1CCO [METRONIDAZOLE],MIC50,[11],2 µg/mL
same,MIC90,[11],4 µg/mL
O=C(O)c1cn(-c2ccc(F)cc2)c2cc(N3CCN(C/C(=N/O)c4ccccc4)CC3)c(F)cc2c1=O,MIC,[4],< 0.125 µg/mL
same,MIC,[5],< 0.125 µg/mL
same,MIC,[6],< 0.125 µg/mL
O=C(O)c1cn(C2CC2)c2cc(N3CCN(CN4c5ccccc5C(=O)N(c5ccc(Cl)cc5)C4c4ccccc4)CC3)c(F)cc2c1=O (stereo not given),MIC,[12],0.1 µg/mL
same,MIC,[5],0.1 µg/mL
same,MIC,[13],0.1 µg/mL
same,MIC,[10],0.1 µg/mL
same,MIC,[14],0.1 µg/mL
same,MIC,[6],0.1 µg/mL
same,MIC,[15],0.1 µg/mL
same,MIC,[3],0.1 µg/mL
O=C(O)c1cn(C2CC2)c2cc(N3CCN(Cc4cc5ccccc5cc4O)CC3)c(F)cc2c1=O,MIC,[16],0.08 µg/mL
same,MIC,[17],0.2 µg/mL
COc1ccc2nc(CN3CCN(c4cc5c(cc4F)c(=O)c(C(=O)O)cn5C4CC4)CC3)[nH]c(=O)c2c1,MIC,[18],0.016 µg/mL
same,MIC,[5],0.016 µg/mL
COc1c(N2C[C@H]3CCCN(C(=O)c4ccc(Cl)cc4)[C@H]3C2)c(F)cc2c(=O)c(C(=O)O)cn(C3CC3)c12,MIC,[19],≤ 1.23 µg/mL
same,MIC,[7],< 1.23 µg/mL
same,MIC,[8],≤ 1.23 µg/mL
same,MIC,[9],≤ 1.23 µg/mL
same,MIC,[5],≤ 1.23 µg/mL
same,MIC,[20],< 1.23 µg/mL
same,MIC,[2],< 1.23 µg/mL
same,MIC,[15],< 1.23 µg/mL
same,MIC,[3],< 1.23 µg/mL
O=C(O)c1cn(-c2ccc(F)cc2)c2cc(N3CCN(Cc4nc5cc(Cl)ccc5c(=O)[nH]4)CC3)c(F)cc2c1=O,MIC,[18],0.125 µg/mL
same,MIC,[5],0.125 µg/mL
CCOc1cc(OCC)nc(/N=N/N2CCN(c3cc4c(cc3F)c(=O)c(C(=O)C(C(=O)OC)C(=O)OC)cn4C3CC3)CC2)n1,MIC,[4],0.015 µg/mL
same,MIC,[5],0.015 µg/mL
same,MIC,[6],0.015 µg/mL
O=C(O)c1cn(C2CC2)c2cc(N3CCN(Cc4c(O)ccc5ccccc45)CC3)c(F)cc2c1=O,MIC,[16],0.012 µg/mL
same,MIC,[2],0.012 µg/mL
same,MIC,[15],0.012 µg/mL
same,MIC,[3],0.012 µg/mL
same,MIC,[17],0.012 µg/mL
CCn1cc(C(=O)O)c(=O)c2cc(F)c(N3CCN(C(=O)CN4C(=O)S/C(=C\c5ccc(OC)cc5)C4=O)CC3)cc21,MIC,[1],0.25 µg/mL
same,MIC,[2],0.25 µg/mL
same,MIC,[3],0.25 µg/mL
CCn1cc(C(=O)O)c(=O)c2cc(F)c(N3CCN(Cc4nnc(-c5ccccc5Cl)o4)CC3)cc21,MIC,[21],0.25 µg/mL
same,MIC,[5],0.25 µg/mL
same,MIC,[22],0.25 µg/mL
same,MIC,[23],0.25 µg/mL
CCn1cc(C(=O)O)c(=O)c2cc(F)c(N3CCN(Cc4nnc(-c5ccc(OC)cc5)o4)CC3)cc21,MIC,[21],0.25 µg/mL
same,MIC,[5],0.25 µg/mL
same,MIC,[22],0.25 µg/mL
same,MIC,[23],0.25 µg/mL
COc1c(N2CCN(/N=N/c3nc(C)cc(C)n3)CC2)c(F)cc2c(=O)c(C(=O)C(C(C)=O)C(C)=O)cn(C3CC3)c12,MIC,[4],0.015 µg/mL
same,MIC,[5],0.015 µg/mL
same,MIC,[6],0.015 µg/mL
O=C(O)c1cn(-c2ccc(F)cc2)c2cc(N3CCN(Cc4nc5ccc(Cl)cc5c(=O)[nH]4)CC3)c(F)cc2c1=O,MIC,[18],0.125 µg/mL
same,MIC,[5],0.125 µg/mL
COc1c(N2CCN(C(=O)Cn3cc(CN4C(=O)C(=O)c5cc(F)ccc54)nn3)C(C)C2)c(F)cc2c(=O)c(C(=O)O)cn(C3CC3)c12 (stereo not given),MIC,[21],≤ 0.03 µg/mL
same,MIC,[5],≤ 0.03 µg/mL
same,MIC,[22],≤ 0.03 µg/mL
same,MIC,[23],≤ 0.03 µg/mL
O=C(O)c1cn(-c2ccc(F)cc2)c2cc(N3CCNCC3)c(F)cc2c1=O [SARAFLOXACIN],MIC,[4],< 0.125 µg/mL
same,MIC,[5],< 0.125 µg/mL
same,MIC,[6],< 0.125 µg/mL
O=C(O)c1cn(-c2ccc(F)cc2)c2cc(N3CCN(Cc4nc5ccccc5c(=O)[nH]4)CC3)c(F)cc2c1=O,MIC,[18],0.125 µg/mL
same,MIC,[5],0.125 µg/mL
COc1ccc2nc(CN3CCN(c4cc5c(cc4F)c(=O)c(C(=O)O)cn5-c4ccc(F)cc4)CC3)[nH]c(=O)c2c1,MIC,[18],0.125 µg/mL
same,MIC,[5],0.125 µg/mL
O=C(O)c1cn(C2CC2)c2cc(N3CCN(Cc4nc5ccc(Cl)cc5c(=O)[nH]4)CC3)c(F)cc2c1=O,MIC,[18],0.016 µg/mL
same,MIC,[5],0.016 µg/mL
CCOc1cc(OCC)nc(/N=N/N2CCN(c3c(F)cc4c(=O)c(C(=O)C(C(C)=O)C(=O)OC)cn(C5CC5)c4c3OC)CC2)n1 (stereo not given),MIC,[4],0.015 µg/mL
same,MIC,[5],0.015 µg/mL
same,MIC,[6],0.015 µg/mL
CCn1cc(C(=O)O)c(=O)c2cc(F)c(N3CCN(C(=O)CN4C(=O)S/C(=C\c5ccc(Cl)cc5Cl)C4=O)CC3)cc21,MIC,[1],0.25 µg/mL
same,MIC,[2],0.25 µg/mL
same,MIC,[3],0.25 µg/mL
CCn1cc(C(=O)O)c(=O)c2cc(F)c(N3CCN(C(=O)CN4C(=O)S/C(=C\c5ccc(N(C)C)cc5)C4=O)CC3)cc21,MIC,[1],0.25 µg/mL
same,MIC,[2],0.25 µg/mL
same,MIC,[3],0.25 µg/mL
COc1cc(C=O)cc(CN2CCN(c3cc4c(cc3F)c(=O)c(C(=O)O)cn4C3CC3)CC2)c1O,MIC,[16],0.012 µg/mL
same,MIC,[2],0.012 µg/mL
same,MIC,[15],0.012 µg/mL
same,MIC,[3],0.012 µg/mL
same,MIC,[17],0.012 µg/mL
CCn1cc(C(=O)O)c(=O)c2cc(F)c(N3CCN(C(=O)CN4C(=O)S/C(=C\c5ccc(F)cc5)C4=O)CC3)cc21,MIC,[1],0.25 µg/mL
same,MIC,[2],0.25 µg/mL
same,MIC,[3],0.25 µg/mL
CCn1cc(C(=O)O)c(=O)c2cc(F)c(N3CCN(C(=O)CN4C(=O)S/C(=C\c5ccc(Cl)cc5)C4=O)CC3)cc21,MIC,[1],0.25 µg/mL
same,MIC,[2],0.25 µg/mL
same,MIC,[3],0.25 µg/mL
COc1c(N2C[C@H]3CCCN(C(=O)c4ccc([N+](=O)[O-])cc4)[C@H]3C2)c(F)cc2c(=O)c(C(=O)O)cn(C3CC3)c12,MIC,[19],≤ 1.23 µg/mL
same,MIC,[7],< 1.23 µg/mL
same,MIC,[8],≤ 1.23 µg/mL
same,MIC,[9],≤ 1.23 µg/mL
same,MIC,[5],≤ 1.23 µg/mL
same,MIC,[20],< 1.23 µg/mL
same,MIC,[2],< 1.23 µg/mL
same,MIC,[15],< 1.23 µg/mL
same,MIC,[3],< 1.23 µg/mL
O=C(O)c1cn(C2CC2)c2cc(N3CCN(Cc4nc5cc(Cl)ccc5c(=O)[nH]4)CC3)c(F)cc2c1=O,MIC,[18],0.016 µg/mL
same,MIC,[5],0.016 µg/mL
COc1ccc(C(=O)N2CCC[C@@H]3CN(c4c(F)cc5c(=O)c(C(=O)O)cn(C6CC6)c5c4OC)C[C@@H]32)cc1,MIC,[19],≤ 1.23 µg/mL
same,MIC,[7],< 1.23 µg/mL
same,MIC,[8],≤ 1.23 µg/mL
same,MIC,[9],≤ 1.23 µg/mL
same,MIC,[5],≤ 1.23 µg/mL
same,MIC,[20],< 1.23 µg/mL
same,MIC,[2],< 1.23 µg/mL
same,MIC,[15],< 1.23 µg/mL
same,MIC,[3],< 1.23 µg/mL
O=C(O)c1cn(C2CC2)c2cc(N3CCN(Cn4nc(-c5ccccn5)oc4=S)CC3)c(F)cc2c1=O,MIC,[4],0.031 µg/mL
same,MIC,[5],0.031 µg/mL
same,MIC,[2],0.031 µg/mL
same,MIC,[3],0.031 µg/mL
COc1c(N2C[C@H]3CCCN(C(=O)c4ccc(C)cc4)[C@H]3C2)c(F)cc2c(=O)c(C(=O)O)cn(C3CC3)c12,MIC,[19],≤ 1.23 µg/mL
same,MIC,[7],< 1.23 µg/mL
same,MIC,[8],≤ 1.23 µg/mL
same,MIC,[9],≤ 1.23 µg/mL
same,MIC,[5],≤ 1.23 µg/mL
same,MIC,[20],< 1.23 µg/mL
same,MIC,[2],< 1.23 µg/mL
same,MIC,[15],< 1.23 µg/mL
same,MIC,[3],< 1.23 µg/mL

# Source: ChEMBL document CHEMBL5241092, “The antibacterial activity of fluoroquinolone derivatives: An update (2018-2021)” (2021)
